Patent US5922775A, “Method of treating malignant tumors with ketone thyroxine analogues having no significant hormonal activity” (priority 1997, dated 1999)

How the values were obtained:
[1] = test system: biosynthetic pathways of DNA, RNA or proteins; settings: cited from earlier work
mammary cancer cells = assay: Colony formation by mammary cancer cells (FIG. 1); assay type: cell-based, human; settings: DIME vs DIPE
Source text: FIG. 1 is a graph illustrating the cell killing effects of DIME and DIPE on mammary cancer colonies;
The effect of DIME and DIPE on colony formation by mammary cancer cells is illustrated in FIG. 1, where the results are superimposable, confirming that cytocidal action of DIME and DIPE are indistinguishable.

[2] = test system: microtubule protein (MTP); assay: Microtubule assembly (MTP polymerization) in vitro, optical test at 350 nm; assay type: biochemical, bovine or rabbit (brain)
Source text: This inhibition is critically dependent on the concentration of GTP. The quantitative correlation between the concentrations of DIME and GTP, under conditions of a linear rate of MTP polymerization, follows Michaelis-Menten kinetics and the inhibition portrays a "mixed" type, where km for GTP and Vmax are altered simultaneously. Chemical analogues of DIME inhibit MTP polymerization parallel to their antitumorigenic action in vivo. The MTP site is one of the early cellular response sites of DIME.
J. Oncol. Abnormal spindle structures could be the result of DIME-MTP interaction or reactions of DIME with components of the microtubule organizing center or with as yet undefined systems sequentially or in concert. Since time-dependent quantitative analysis of the MTP system in situ is unsuitable for initial velocity measurement we adapted the in vitro assembly system of neurotubules as a model for a quantitative analysis of the interaction of DIME with MTP. […] The time course of MTP assembly consists of initiation and propagation and termination steps, Gaskin, et al., 1974, "Turbidimetric studies of the in vitro assembly and disassembly of porcine neurotubules", J. Mol. Biol. 89:737-758. The rate of propagation under defined conditions is sufficiently linear to permit kinetic analysis, that can be evaluated with respect DIME and GTP concentrations. As we show here the inhibition of MTP assembly by DIME occurs in the same range of drug concentration as required to inhibit tumorigonesis in vivo, or to inhibit cell replication or induce eventual cell death; Mendeleyev, et al., 1997. "Structural specificity and tumoricidal action of methyl-3,5-diiodo-4-(4'-methoxyphenoxy)benzoate (DIME)" Int. J. Oncol., 10:689-695. Therefore the DIME-MTP interaction is most probably a component of the apparently pleiotropic cellular mechanism of action of DIME.
Preparation of MTP and an optical test for polymerization was adopted from published methods, Gaskin, et al., 1974, "Turbidimetric studies of the in vitro assembly and disassembly of porcine neurotubules", J. Mol. Biol. 89:737-758; Tiwari, et al., 1993, "A pH and temperature-dependent cycling method that doubles the yield of microtubule protein", Anal. Biochem. 215:96-103. Bovine or rabbit brain was homogenized in an equal volume of ice cold buffer containing 100 mM Pipes/K^+ (pH 7.4), 4 mM EGTA. 1 mM MgCl2, 0.5 mM DTT and 0.1 mM PMSF, and centrifuged at 39,000 g for 1 hour at 4° C. To the supernatant, DMSO (8% final concentration) and GTP (1 mM final concentration) were added, followed by incubation at 37° C. for 30 minutes. Microtubules were pelleted at 100,000 g at 37° C. for 30 minutes. The pellets were incubated on ice for 15 minutes, followed by resuspension in ice cold PEM buffer (100 mM Pipes/K+ (pH 6.9), 1 mM EGTA, 1 mM MgCl2). This warm polymerization and cold depolymerization cycle was repeated once more and the cold, resuspended monomeric MTP (8-10 mg/ml protein) was used for the optical test for polymerization kinetics. Both rabbit or bovine brain yielded identical MTP preparations.
The polymerization reaction was started by the addition of […] of MTP solution (equivalent to 0.8-1.0 mg protein) and initial linear rates of increase in absorbance at 350 nm followed and recorded at 37° C. in a Perkin-Elmer 552 double beam spectrophotometer, equipped with a thermostatically controlled cuvette holder.
It is apparent that the rate of MTP polymerization proceeds in a linear manner, thus conditions for maximal polymerization rates as defined by Berne, B, 1974, "Interpretation of light scattering from long rods", J. Mol. Biol. 89:755-758 appear fulfilled. Therefore it is possible to determine the quantitative correlation between [DIME] and [GTP] by comparing the linear rate in the presence of varying drug and activator concentrations.
The assay system consisted of 240 μl of PEM buffer containing 8% DMSO […]
(added in 3 μl), or solvent control and 0.6 mg MTP (60 μl). […]

**Q.** For `COC(=O)c1cc(I)c(Oc2ccc(OC)cc2)c(I)c1` [DIME, methyl 3,5-diiodo-4-(4'-methoxyphenoxy)benzoate], which “inhibition of biosynthetic pathways of DNA, RNA or proteins” value [1] is on record?
**A.** nor does it inhibit the biosynthetic pathways of DNA, RNA or proteins

**Q.** What about the “effect on colony formation (FIG. 1)” value (mammary cancer cells) of the same compound?
**A.** superimposable

**Q.** What about the “Percent inhibition of intitial velocity (microtubule assembly in vitro)” value ([2]; 10 μM drug, GTP 1 mM, 37° C., averages of duplicate assay) of the same compound?
**A.** 93%

**Q.** And the “change of km GTP” value ([2]; 1 mM DIME [sic])?
**A.** ~50%

**Q.** What about the “decrease of Vmax” value ([2]; 1 mM DIME [sic]) of the same compound?
**A.** ~50%

**Q.** What about the Km ([2]; 1 mM DIME [sic], from 6.7 mM without drug, read-out: km GTP in presence of DIME) of the same compound?
**A.** 14 µM

**Q.** What about the “inhibition of MTP polymerization with increasing DIME” value ([2]; 1 mM GTP, increasing DIME concentrations) of the same compound?
**A.** progressively inhibit MTP polymerization

**Q.** What about the “inhibition of GTP-dependent polymerization of MTP” value ([2]; DIME at 1 to 5 mM as printed) of the same compound?
**A.** inhibits the GTP-dependent polymerization of MTP

**Q.** What about the “type of inhibition of MTP polymerization (DIME vs GTP)” value ([2]; double reciprocal plot / Michaelis-Menten, 1 mM DIME) of the same compound?
**A.** "mixed" type inhibition

**Q.** What about the “inhibitory action on MTP assembly (comparison, FIG. 2)” value ([2]; drug concentrations up to 20 μM) of the same compound?
**A.** similar

**Q.** What about the “order of potency on MTP assembly (FIG. 3)” value ([2]; zero to 10 μM drug, lowered GTP concentration (10 μM)) of the same compound?
**A.** DIME>DIPE>DIPP
